Measured values as given in ChEMBL document CHEMBL1201862, “PubChem BioAssay data set” (2004).
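Each compound was tested at five concentrations against cells in 96-well plates for 48 hours. GI50 is the concentration that inhibits growth by half.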 Active and inactive are the calls of the source. Rule as the data show it: active = GI50 up to about 1.1 µM and inactive = higher.

Experiments:
Test in all cases: NCI anticancer screen, dose series, 48 h
[1] = test system: 786-0
[2] = test system: A549
[3] = test system: ACHN
[4] = test system: BT-549
[5] = test system: CAKI-1
[6] = test system: CCRF-CEM
[7] = test system: COLO 205
[8] = test system: DU-145
[9] = test system: EKVX
[10] = test system: HCC 2998
[11] = test system: HCT-116
[12] = test system: HCT-15
[13] = test system: HOP-62
[14] = test system: HOP-92
[15] = test system: HT-29
[16] = test system: IGROV-1
[17] = test system: K562
[18] = test system: KM12
[19] = test system: LOX IMVI
[20] = test system: M14
[21] = test system: MCF7
[22] = test system: MDA-MB-231
[23] = test system: MDA-MB-435
[24] = test system: MDA-N
[25] = test system: MOLT-4
[26] = test system: Malme-3M
[27] = test system: NCI-H226
[28] = test system: NCI-H23
[29] = test system: NCI-H460
[30] = test system: NCI-H522
[31] = test system: NCI/ADR-RES
[32] = test system: OVCAR-3
[33] = test system: OVCAR-4
[34] = test system: OVCAR-5
[35] = test system: OVCAR-8
[36] = test system: PC-3
[37] = test system: RPMI-8226
[38] = test system: RXF 393
[39] = test system: SF-295
[40] = test system: SF-539
[41] = test system: SK-MEL-28
[42] = test system: SK-MEL-2
[43] = test system: SK-MEL-5
[44] = test system: SK-OV-3
[45] = test system: SN12C
[46] = test system: SNB-19
[47] = test system: SNB-75
[48] = test system: SR
[49] = test system: SW-620
[50] = test system: T47D
[51] = test system: TK-10
[52] = test system: U-251
[53] = test system: UACC-257
[54] = test system: UACC-62
[55] = test system: UO-31

N#CCCN(C(=O)Nc1ccccc1)[C@H]1CCCC[C@@H]1N(C(=O)Nc1ccccc1)c1ccccc1
GI50 [1]: > 100 µM (inactive)
GI50 [2]: 58.1 µM (inactive)
GI50 [3]: > 100 µM (inactive)
GI50 [4]: > 100 µM (inactive)
GI50 [5]: > 100 µM (inactive)
GI50 [6]: 30.1 µM (inactive)
GI50 [7]: 83 µM (inactive)
GI50 [8]: > 100 µM (inactive)
GI50 [9]: 65.5 µM (inactive)
GI50 [10]: 73.3 µM (inactive)
GI50 [11]: 66.7 µM (inactive)
GI50 [12]: > 100 µM
GI50 [13]: > 100 µM (inactive)
GI50 [14]: > 100 µM (inactive)
GI50 [15]: 43 µM (inactive)
GI50 [16]: 61 µM (inactive)
GI50 [17]: 49.1 µM (inactive)
GI50 [18]: 32.8 µM (inactive)
GI50 [19]: > 100 µM (inactive)
GI50 [20]: 64.7 µM (inactive)
GI50 [21]: 48.2 µM (inactive)
GI50 [22]: > 100 µM (inactive)
GI50 [23]: > 100 µM (inactive)
GI50 [24]: > 100 µM (inactive)
GI50 [25]: 25.1 µM (inactive)
GI50 [26]: > 100 µM (inactive)
GI50 [27]: 77.8 µM (inactive)
GI50 [28]: > 100 µM (inactive)
GI50 [29]: 48.2 µM (inactive)
GI50 [30]: 71.1 µM (inactive)
GI50 [31]: > 100 µM (inactive)
GI50 [32]: > 100 µM (inactive)
GI50 [33]: 64.6 µM (inactive)
GI50 [34]: > 100 µM (inactive)
GI50 [35]: > 100 µM (inactive)
GI50 [36]: 48.1 µM (inactive)
GI50 [37]: 36.7 µM (inactive)
GI50 [38]: 35.6 µM (inactive)
GI50 [39]: 55.7 µM (inactive)
GI50 [40]: > 100 µM (inactive)
GI50 [41]: > 100 µM (inactive)
GI50 [42]: > 100 µM (inactive)
GI50 [43]: > 100 µM (inactive)
GI50 [44]: > 100 µM (inactive)
GI50 [45]: > 100 µM (inactive)
GI50 [46]: 22.2 µM (inactive)
GI50 [47]: 16.7 µM (inactive)
GI50 [48]: 19.3 µM (inactive)
GI50 [49]: 72.6 µM (inactive)
GI50 [50]: > 100 µM (inactive)
GI50 [51]: > 100 µM (inactive)
GI50 [52]: > 100 µM (inactive)
GI50 [53]: > 100 µM (inactive)
GI50 [54]: > 100 µM (inactive)
GI50 [55]: 54.2 µM (inactive)
